In the supplement of paper PMC10307832:

Tests used:
Test in all cases: relative viability (nuclei count vs DMSO), 5 days (fraction); higher = more cells survive
Ruxolitinib + Pemetrexed = compound: N#CC[C@H](C1CCCC1)n1cc(-c2ncnc3[nH]ccc23)cn1 [Ruxolitinib] + Nc1nc2[nH]cc(CCc3ccc(C(=O)N[C@@H](CCC(=O)O)C(=O)O)cc3)c2c(=O)[nH]1 [Pemetrexed] (partner 0.2 µM)
How it was run: (§1)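 For relative viability, nuclei counts in treated wells were divided by those in vehicle wells. Lung cancer cell lines had been pin-tool dosed in 1536-well plates the day after seeding and cultured for 5 days, then fixed and stained in one step (final 0.05% Triton X-100, 1% formaldehyde, 1 ug/ml Hoechst) and imaged at 4×. Doses were one drug alone or a fixed anchor-drug dose plus five library-drug doses (not always all listed) in √10 steps, and values are duplicate-plate medians.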

Ruxolitinib + OSI-027 = compound: N#CC[C@H](C1CCCC1)n1cc(-c2ncnc3[nH]ccc23)cn1 [Ruxolitinib] + COc1cccc2cc(-c3nc([C@H]4CC[C@H](C(=O)O)CC4)n4ncnc(N)c34)[nH]c12 [OSI-027] (partner 0.5 µM)
How it was run: as §1

Ruxolitinib + AZD7762 = compound: N#CC[C@H](C1CCCC1)n1cc(-c2ncnc3[nH]ccc23)cn1 [Ruxolitinib] + NC(=O)Nc1cc(-c2cccc(F)c2)sc1C(=O)N[C@H]1CCCNC1 [AZD7762] (partner 0.2 µM)
How it was run: as §1

Vismodegib + Linsitinib = compound: CS(=O)(=O)c1ccc(C(=O)Nc2ccc(Cl)c(-c3ccccn3)c2)c(Cl)c1 [Vismodegib] + C[C@]1(O)C[C@@H](c2nc(-c3ccc4ccc(-c5ccccc5)nc4c3)c3c(N)nccn32)C1 [Linsitinib] (partner 1 µM)
How it was run: as §1

Cell Line	relative viability (Ruxolitinib + Pemetrexed; first compound 0.08 µM)	relative viability (Ruxolitinib + Pemetrexed; first compound 0.253 µM)	relative viability (Ruxolitinib + Pemetrexed; first compound 0.8 µM)	relative viability (Ruxolitinib + Pemetrexed; first compound 2.53 µM)	relative viability (Ruxolitinib + Pemetrexed; first compound 8 µM)	relative viability (Ruxolitinib + OSI-027; first compound 0.253 µM)	relative viability (Ruxolitinib + OSI-027; first compound 0.8 µM)	relative viability (Ruxolitinib + OSI-027; first compound 2.53 µM)	relative viability (Ruxolitinib + OSI-027; first compound 8 µM)	relative viability (Ruxolitinib + AZD7762; first compound 0.08 µM)	relative viability (Ruxolitinib + AZD7762; first compound 0.253 µM)	relative viability (Ruxolitinib + AZD7762; first compound 0.8 µM)	relative viability (Ruxolitinib + AZD7762; first compound 2.53 µM)	relative viability (Ruxolitinib + AZD7762; first compound 8 µM)	relative viability (Vismodegib + Linsitinib; first compound 0.253 µM)	relative viability (Vismodegib + Linsitinib; first compound 0.8 µM)	relative viability (Vismodegib + Linsitinib; first compound 2.53 µM)	relative viability (Vismodegib + Linsitinib; first compound 8 µM)	relative viability (Ruxolitinib + OSI-027; first compound 0.08 µM)	relative viability (Vismodegib + Linsitinib; first compound 0.08 µM)
NCI-H2405	1.07	1.11	1.13	0.895	0.592	0.503	0.684	0.623	0.468	0.738	0.792	0.818	0.488	0.416	0.859	0.806	0.776	1.07	–	–
PC-3 [JPC-3]	–	1.13	1.18	1.11	0.907	0.702	0.811	0.704	0.672	–	0.82	0.866	0.946	0.814	0.941	1.04	0.988	0.933	0.756	0.934
EBC-1	–	–	–	–	–	–	–	–	–	–	–	–	–	–	0.901	0.981	0.778	0.883	–	0.871
NCI-H2347	0.459	0.407	0.451	0.406	0.434	0.377	0.451	0.397	0.486	0.8	0.89	0.766	0.769	0.877	0.997	0.857	0.962	1.04	0.438	0.902
LXF-289	0.866	0.943	0.925	0.933	0.852	0.79	0.789	0.698	0.624	1.06	1.15	1.11	1.04	1	0.929	0.98	0.976	0.919	0.776	0.959
HCC-78	0.919	0.952	0.857	0.892	0.955	0.337	0.33	0.383	0.365	0.695	0.484	0.481	0.631	0.628	0.477	0.406	0.588	0.488	0.36	0.474
HCC-366	0.162	0.193	0.155	0.192	0.147	0.771	1.01	0.819	0.828	0.286	0.253	0.262	0.166	0.246	0.636	0.575	0.563	0.703	0.984	0.628
NCI-H2023	0.264	0.271	0.23	0.233	0.23	0.298	0.556	0.343	0.411	–	–	–	–	–	0.662	0.675	0.579	0.618	0.455	0.596
NCI-H1734	0.399	0.366	0.437	0.369	0.456	0.491	0.671	0.417	0.637	0.638	0.629	0.662	0.54	0.602	0.831	0.878	0.825	1.01	0.586	0.878
SK-LU-1	1.03	1.02	1.01	0.919	0.792	0.36	0.393	0.295	0.291	–	–	–	–	–	1.06	1.23	0.693	1.13	0.413	1.35
NCI-H522	1.04	0.973	1.05	0.964	0.857	0.667	0.78	0.628	0.605	0.948	0.716	1.01	0.794	0.803	–	–	–	–	0.811	–
Calu-6	–	–	–	–	–	–	–	–	–	–	–	–	–	–	0.9	0.952	0.904	1.02	–	1
IA-LM	–	–	–	–	–	–	–	–	–	–	–	–	–	–	0.493	0.68	0.579	0.63	–	0.629
SW 1573	0.878	0.855	0.957	0.768	0.867	0.482	0.815	0.386	0.573	–	–	–	–	–	0.728	0.789	0.64	0.821	0.607	0.823
NCI-H1648	0.674	0.838	0.739	0.923	1.02	0.269	0.257	0.308	0.279	0.739	0.817	0.658	0.914	1.15	–	–	–	–	–	–
NCI-H2009	1.03	1.03	1.03	0.936	0.745	0.609	0.789	0.54	0.281	–	–	–	–	–	1.18	1.19	1.16	1.26	0.668	1.14
NCI-H2228	0.332	0.342	0.318	0.324	0.321	0.419	0.743	0.446	0.289	–	–	–	–	–	0.855	0.835	0.467	0.763	0.629	0.972
NCI-H1703	–	–	–	–	–	–	–	–	–	0.127	0.126	0.143	–	0.115	0.77	0.928	0.618	1.19	–	0.928
ABC-1	–	–	–	–	–	0.379	0.83	0.455	0.539	–	1.07	0.834	0.743	0.928	0.682	0.79	0.821	0.794	–	0.666
NCI-H1299	–	–	–	–	–	–	–	–	–	–	–	–	–	–	0.952	0.994	0.929	0.991	–	0.979
SK-MES-1	1.03	0.865	1.01	0.849	0.823	0.587	0.702	0.534	0.512	–	–	–	–	–	1.07	1.08	0.973	1.07	0.676	1.04
NCI-H2170	0.256	0.262	0.259	0.266	0.276	0.68	0.713	0.567	0.667	0.908	0.834	0.959	0.76	0.706	–	–	–	–	0.659	–
NCI-H661	0.925	0.959	0.939	1	0.809	0.664	0.834	0.664	0.666	–	–	–	–	–	0.497	0.575	0.522	0.579	0.752	0.5
